Experimental data published in patent publication US20160046592A1, “PHARMACEUTICAL COMPOSITION FOR THE TREATMENT OF DIABETES” (Ajinomoto Co., Inc., priority 2013, published 2016).
Structures can show the parent of a compound that is named as a salt.

Target: T1, human GYS1 (glycogen synthase) (Homo sapiens, UniProt P13807)
T1 construct: made in house; host or cells: HEK293T
T1 sequence (P13807 1-737): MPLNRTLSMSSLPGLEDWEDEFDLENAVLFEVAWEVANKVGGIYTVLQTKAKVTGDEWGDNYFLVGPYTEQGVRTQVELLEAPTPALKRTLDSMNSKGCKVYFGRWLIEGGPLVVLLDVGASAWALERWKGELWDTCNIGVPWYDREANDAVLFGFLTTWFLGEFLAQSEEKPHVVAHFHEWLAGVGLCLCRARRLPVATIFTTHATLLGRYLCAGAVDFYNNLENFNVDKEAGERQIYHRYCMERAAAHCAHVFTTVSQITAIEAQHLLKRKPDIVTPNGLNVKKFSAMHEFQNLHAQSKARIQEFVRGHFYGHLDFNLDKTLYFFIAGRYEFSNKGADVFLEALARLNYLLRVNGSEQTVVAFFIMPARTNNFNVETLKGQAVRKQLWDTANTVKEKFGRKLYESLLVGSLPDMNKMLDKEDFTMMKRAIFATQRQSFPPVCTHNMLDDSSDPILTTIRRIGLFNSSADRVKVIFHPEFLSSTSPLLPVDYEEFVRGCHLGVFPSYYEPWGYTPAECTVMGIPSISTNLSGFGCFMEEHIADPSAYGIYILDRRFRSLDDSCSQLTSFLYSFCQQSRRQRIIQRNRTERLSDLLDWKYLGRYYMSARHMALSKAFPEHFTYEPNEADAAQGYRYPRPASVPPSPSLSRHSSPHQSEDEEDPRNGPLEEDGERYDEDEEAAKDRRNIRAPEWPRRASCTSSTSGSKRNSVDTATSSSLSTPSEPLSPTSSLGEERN
Experiment: Measurement of glycogen synthase activity
Format: biochemical
Settings: concentration causing 50% increase in relative activity; 100% = compound of Example 1 of WO/2011/058154 at 10 μM; 10 mM Glucose-6-phosphate; 37° C. for 25 minutes (Examples 1 to 61 and 67 to 82) or 20 minutes (Examples 62 to 66); absorbance at 340 nm
Method in brief: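 Human GYS1 from transfected HEK293T cells (re-dissolved 16000×g pellet) was reacted at 37 °C for 25 or 20 min in glycylglycine pH 7.3 with glucose-6-phosphate, glycogen and UDP-glucose. PK/LDH-coupled NADH read-out at 340 nm; EC50 from activity relative to a reference activator at 10 μM final (100%).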

Row | SMILES | EC50 [nM]
1 | COC[C@@H]1CC[C@@H](C(=O)O)N1C(=O)c1cccc(COc2ccc(-c3cc(F)c(F)cc3SC)cc2)c1 [Example 62, (2S,5S)-1-[3-[[4-(4,5-Difluoro-2-methylsulfanyl-phenyl)phenoxy]methyl]benzoyl]-5-(methoxymethyl)pyrrolidine-2-carboxylic Acid] | 17
2 | CSc1cc(F)c(F)cc1-c1ccc(OCc2cccc(C(=O)N3C[C@H](N(C)C)C[C@H]3C(=O)O)c2)cc1 [Example 63, (2S,4R)-1-[3-[[4-(4,5-Difluoro-2-methylsulfanyl-phenyl)phenoxy]methyl]benzoyl]-4-(dimethylamino)pyrrolidine-2-carboxylic Acid Trifluoroacetate] | 17
